According to patent publication US7678941B2, “Polyoxyalkylene ammonium salts and their use as antistatic agents” (3M Innovative Properties Company, priority 2001, dated 2010):

Columns and labels:
[1] = Surface Resistivity Test (ASTM D-257) of topically coated polyester film; details: 72° F., 27% relative humidity; for Surface Resistivity 1% MEK solution: 1% solution in MEK coated on polyester film; for Surface Resistivity 6% MEK: 6% solution in MEK coated on polyester film
Experimental: Test Method IV—Surface Resistivity Test
The Surface Resistivity Test was conducted according to the procedure of ASTM Standard D-257; “D.C. Resistance or Conductance of Insulating Materials”. The surface resistivity was measured under these conditions using an ETS Model 872 Wide Range Resistance Meter fitted with a Model 803B probe (Electro-Tech Systems, Inc., Glenside, Pa.). This apparatus applies an external voltage of 10 Volts across two concentric ring electrodes and provides surface resistivity readings in ohm/cm^2. The room temperature was 72° F. and there was a 27% relative humidity.
Topically Coated Polyester Film.
A 1% and 6% solution of the antistatic agent to be tested in methylethyl ketone (MEK) was prepared. About 2 mL of solution was pipetted onto the top of a sheet of polyester film with 25.5 cm by 17.8 cm dimensions. The solution was then drawn over the film using a #12 wire wound bar. The resulting coating was dried in a forced air oven for 2.5 minutes at 65° C.

[2] = Surface tension determination (Kruss K12 Tensiometer, Wilhelmy plate); type: physicochemical
Experimental: Test Method III—Surface Tension Determination
All surface tensions were determined using a Kruss K12 Tensiometer. It was integrated with an automatic dosimat and a computer, using a software package for dynamic contact angle (K121). The program was run using a Wilhelmy platinum plate (PL12) and glass sample vessel (GL7). All parts referenced above including instrument and computer can be purchased directly from Kruss USA, Charlotte, N.C.

[3] = Bioelimination study, amount of fluorochemical sulfonate in male rat liver tissue; type: in vivo; details: for Amount of Sulfonate, Day 1N / Amount of Sulfonate, Day 1 / Amount of Sulfonate, Day 14N / Amount of Sulfonate, Day 14 / Amount of Sulfonate, Day 28N / Amount of Sulfonate, Day 28: male rat liver; for Amount of Sulfonate, Day 1N / Amount of Sulfonate, Day 14N / Amount of Sulfonate, Day 28N: normalized to a feeding level of 3 mg/kg body weight per day; for Amount of Sulfonate, Day 1 / Amount of Sulfonate, Day 14 / Amount of Sulfonate, Day 28: potassium salts dosed at 30 (C4), 10 (C6), 3 (C8) mg/kg body weight/day; for elimination from the body: tested in the form of its potassium salt
Experimental: Bioelimination Study with Perfluorobutanesulfonate
Comparative study of potassium perfluorobutanesulfonate (using a dose level of 30 mg/kg body weight/day), potassium perfluorohexanesulfonate (using a dose level of 10 mg/kg body weight/day), and potassium perfluorooctanesulfonate (using a dose level of 3 mg/kg body weight/day).

[4] = Thermal gravimetric analysis (TGA); type: physicochemical; details: for Wt. % remaining @ given Temp: nitrogen, 10° C. per minute ramp; for weight loss compared with chloride salt of the same cation: processing range of 200-320° C.
Experimental: Test Methods Test Method I—Thermal Gravimetric Analysis (TGA)
The thermal decomposition of each salt was determined by thermal gravimetric analysis (TGA) under an inert nitrogen atmosphere using a 10° C. per minute temperature ramp using a PerkinElmer Thermogravimetric Analyzer TGA 7, manufactured by PerkinElmer Instruments of Norwalk, Conn.
Table 3 provides thermal gravimetric data for antistats of the present invention and comparative antistats.

[5] = at 28 days following completion of feeding, after normalization to the same feeding levels
[6] = liver amount at 28 days following completion of feeding
[7] = liver amount immediately following completion of feeding

[CH3(OCH2CH2)19(OCH2CHCH3)2NH3^+][^−O3SCF3] [Comparative Antistat 2]
Surface Resistivity 1% MEK solution [1]: 1.5 × 10^12 Ohm/cm^2
Surface Resistivity 6% MEK [1]: 1.6 × 10^12 Ohm/cm^2

O=S(=O)([O-])C(F)(F)C(F)(F)C(F)(F)C(F)(F)C(F)(F)C(F)(F)C(F)(F)C(F)(F)F.[K+] [Antistat C8F17SO3K, Potassium perfluorooctanesulfonate]
surface energy ([2]; 10 ppm in water): 67.68 dyne/cm
surface energy ([2]; 100 ppm in water): 54.09 dyne/cm
surface energy ([2]; 1000 ppm in water): 33.17 dyne/cm
Amount of Sulfonate, Day 1N [3]: 419 ppm
Amount of Sulfonate, Day 1 [3]: 419 ± 86 ppm
Amount of Sulfonate, Day 14N [3]: 309 ppm
Amount of Sulfonate, Day 14 [3]: 309 + 34 ppm
Amount of Sulfonate, Day 28N [3]: 237 ppm
Amount of Sulfonate, Day 28 [3]: 237 ± 25 ppm

O=S(=O)([O-])C(F)(F)C(F)(F)C(F)(F)C(F)(F)F.[K+] [Antistat C4F9SO3K, Potassium perfluorobutane sulfonate]
surface energy ([2]; 10 ppm in water): 70 dyne/cm
surface energy ([2]; 100 ppm in water): 67.5 dyne/cm
surface energy ([2]; 1000 ppm in water): 53 dyne/cm
factor lower than C6F13SO3^− [3, 5]: 4400
factor lower than C6F13SO3^− [3, 6]: > 1400
factor lower than C6F13SO3^− [3, 7]: > 100
Amount of Sulfonate, Day 1N [3]: 0.31 ppm
Amount of Sulfonate, Day 1 [3]: 3.09 ± 1.58 ppm
Amount of Sulfonate, Day 14N [3]: 0.0126 ppm
Amount of Sulfonate, Day 14 [3]: 0.126 ± 0.084 ppm
Amount of Sulfonate, Day 28N [3]: 0.0025 ppm
Amount of Sulfonate, Day 28 [3]: 0.025 ± 0.015 ppm
elimination from the body ([3]; listed as C4F9SO3^−): unexpectedly fast and effective elimination
elimination from the body ([3]; listed as perfluorobutanesulfonate): eliminates from the body more rapidly than perfluorohexanesulfonate and much more rapidly than perfluorooctanesulfonate

[(+)H3NCH(CH3)CH2[OCH(CH3)CH2]a[OCH2CH2]8.5[OCH2CH(CH3)]CNH3(+)][C8F17SO3^−]2 (a+c=2.5) [Comparative Antistat 1]
Surface Resistivity 1% MEK solution [1]: 1.6 × 10^11 Ohm/cm^2
Surface Resistivity 6% MEK [1]: 1.5 × 10^11 Ohm/cm^2

[CH3(OCH2CH2)19(OCH2CHCH3)2NH3^+][^−N(SO2CF3)2] [Antistat 6]
Surface Resistivity 1% MEK solution [1]: 1.6 × 10^9 Ohm/cm^2
Surface Resistivity 6% MEK [1]: 7.8 × 10^9 Ohm/cm^2

[C18H37N^+(CH3)(CH2CH2O)mH(CH2CH2O)nH^−Cl] (m + n = 15) [ETHOQUAD ™ 18/25]
Wt. % remaining @ given Temp ([4]; 200° C.): 97.6 Wt. %
Wt. % remaining @ given Temp ([4]; 240° C.): 90.8 Wt. %
Wt. % remaining @ given Temp ([4]; 280° C.): 85.5 Wt. %
Wt. % remaining @ given Temp ([4]; 320° C.): 82.0 Wt. %

[(+)H3NCH(CH3)CH2[OCH(CH3)CH2]a[OCH2CH2]8.5[OCH2CH(CH3)]CNH3(+)][—N(SO2CF3)2]2 (a+c=2.5); JEFFAMINE™ XJT-500 [^—N(SO2CF3)2]salt [Antistat 7]
Surface Resistivity 1% MEK solution [1]: 1.2 × 10^9 Ohm/cm^2
Surface Resistivity 6% MEK [1]: 3.7 × 10^8 Ohm/cm^2

O=S(=O)([O-])C(F)(F)C(F)(F)C(F)(F)C(F)(F)C(F)(F)C(F)(F)F.[K+] [C6F13SO3^−, potassium perfluorohexanesulfonate]
factor lower than C8F17SO3^− [3, 5]: 21.5
factor lower than C8F17SO3^− [3, 6]: 6.5
factor lower than C8F17SO3^− [3, 7]: 1.3
Amount of Sulfonate, Day 1N [3]: 98 ppm
Amount of Sulfonate, Day 1 [3]: 327 ± 52 ppm
Amount of Sulfonate, Day 14N [3]: 19 ppm
Amount of Sulfonate, Day 14 [3]: 61.9 ± 11.7 ppm
Amount of Sulfonate, Day 28N [3]: 11 ppm
Amount of Sulfonate, Day 28 [3]: 36.3 ± 7.4 ppm

CH3CH2C[CH2(OCH2CH(CH3))xNH3^+][CH2(OCH2CH(CH3))yNH3^+][CH2(OCH2CH(CH3))zNH3^+][—N(SO2C4F9)2]3 where x+y+z˜5.3; JEFFAMINE™ T-403 DBI salt [Antistat 2]
Surface Resistivity 1% MEK solution [1]: 2.4 × 10^10 Ohm/cm^2
Surface Resistivity 6% MEK [1]: 1.5 × 10^11 Ohm/cm^2

[(+)H3NCH(CH3)CH2[OCH(CH3)CH2]a[OCH2CH2]8.5[OCH2CH(CH3)]cNH3(+)][—N(SO2C4F9)2]2 (a+c=2.5); JEFFAMINE™ XJT-500 DBI salt [Antistat 1]
Surface Resistivity 1% MEK solution [1]: 8.5 × 10^9 Ohm/cm^2
Surface Resistivity 6% MEK [1]: 3.1 × 10^9 Ohm/cm^2

[C12H25N^+(CH3)(CH2CH2O)mH(CH2CH2O)nH^−Cl] (m + n = 15) [ETHOQUAD ™ C/25]
Wt. % remaining @ given Temp ([4]; 200° C.): 97.2 Wt. %
Wt. % remaining @ given Temp ([4]; 240° C.): 89.4 Wt. %
Wt. % remaining @ given Temp ([4]; 280° C.): 85.9 Wt. %
Wt. % remaining @ given Temp ([4]; 320° C.): 81.8 Wt. %

O=S(=O)([N-]S(=O)(=O)C(F)(F)C(F)(F)C(F)(F)C(F)(F)F)C(F)(F)C(F)(F)C(F)(F)C(F)(F)F.[K+] [C4F9SO2NKSO2C4F9, potassium bis(perfluorobutanesulfonyl)imide]
surface energy ([2]; 10 ppm in water): 61.85 dyne/cm
surface energy ([2]; 100 ppm in water): 41.61 dyne/cm
surface energy ([2]; 1000 ppm in water): 34.02 dyne/cm

CH3CH2C[CH2(OCH2CH(CH3))xNH3^+][CH2(OCH2CH(CH3))yNH^3^+][CH2(OCH2CH(CH3))zNH3^+][^−N(SO2CF3)2]3 where x+y+z˜5.3; JEFFAMINE™ T-403 DMI salt [Antistat 3]
Surface Resistivity 1% MEK solution [1]: 1.7 × 10^9 Ohm/cm^2
Surface Resistivity 6% MEK [1]: 1.1 × 10^9 Ohm/cm^2

[C12H25N^+(CH3)(CH2CH2O)mH(CH2CH2O)nH][^−N(SO2CF3)2]; (m+n=15) [Antistat 4]
Wt. % remaining @ given Temp ([4]; 200° C.): 99.7 Wt. %
Wt. % remaining @ given Temp ([4]; 240° C.): 99.5 Wt. %
Wt. % remaining @ given Temp ([4]; 280° C.): 99.3 Wt. %
Wt. % remaining @ given Temp ([4]; 320° C.): 98.6 Wt. %
weight loss compared with chloride salt of the same cation [4]: less weight loss than ETHOQUAD™ C/25

[C18H37N^+(CH3)(CH2CH2O)mH(CH2CH2O)nH][^−N(SO2CF3)2]; (m+n=15) [Antistat 5]
Wt. % remaining @ given Temp ([4]; 200° C.): 99.6 Wt. %
Wt. % remaining @ given Temp ([4]; 240° C.): 99.2 Wt. %
Wt. % remaining @ given Temp ([4]; 280° C.): 98.9 Wt. %
Wt. % remaining @ given Temp ([4]; 320° C.): 98.0 Wt. %
weight loss compared with chloride salt of the same cation [4]: less weight loss than ETHOQUAD™ 18/25
